Columns and labels:
[1] = target: GABA-A receptor (benzodiazepine site, α1/γ2 interface); test: Radioligand binding assay for the GABA-A receptor ([3H]-flunitrazepam displacement, rat brain homogenate); details: pKi = -log Ki, n.a. = no affinity
[2] = target: T1, α1β2γ2-GABA-A receptors stably expressed in HEK293 cells (Homo sapiens, UniProt P14867+P18507); test: Electrophysiological studies, automated patch clamp (QPatch16X), positive allosteric modulation of GABA-induced Cl- currents; format: cell-based; details: compound 1 μM co-applied with 10 μM GABA; GABA alone = 100%; mean ± SEM
T1 construct: expressed in transfected cells
T1 sequence (P14867 28-456): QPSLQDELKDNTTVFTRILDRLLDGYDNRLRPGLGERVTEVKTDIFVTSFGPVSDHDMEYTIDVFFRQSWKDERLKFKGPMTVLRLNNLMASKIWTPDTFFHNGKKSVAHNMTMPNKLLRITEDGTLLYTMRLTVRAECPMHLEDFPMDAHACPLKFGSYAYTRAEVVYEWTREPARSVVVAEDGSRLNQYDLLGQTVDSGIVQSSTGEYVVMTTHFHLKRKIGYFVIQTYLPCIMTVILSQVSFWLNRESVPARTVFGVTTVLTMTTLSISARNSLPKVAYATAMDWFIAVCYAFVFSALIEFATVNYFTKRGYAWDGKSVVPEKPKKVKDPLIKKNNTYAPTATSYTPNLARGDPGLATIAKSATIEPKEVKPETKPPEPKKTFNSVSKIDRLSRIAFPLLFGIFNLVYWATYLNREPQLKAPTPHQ
T1 sequence (P47870 25-512 partner limits assumed): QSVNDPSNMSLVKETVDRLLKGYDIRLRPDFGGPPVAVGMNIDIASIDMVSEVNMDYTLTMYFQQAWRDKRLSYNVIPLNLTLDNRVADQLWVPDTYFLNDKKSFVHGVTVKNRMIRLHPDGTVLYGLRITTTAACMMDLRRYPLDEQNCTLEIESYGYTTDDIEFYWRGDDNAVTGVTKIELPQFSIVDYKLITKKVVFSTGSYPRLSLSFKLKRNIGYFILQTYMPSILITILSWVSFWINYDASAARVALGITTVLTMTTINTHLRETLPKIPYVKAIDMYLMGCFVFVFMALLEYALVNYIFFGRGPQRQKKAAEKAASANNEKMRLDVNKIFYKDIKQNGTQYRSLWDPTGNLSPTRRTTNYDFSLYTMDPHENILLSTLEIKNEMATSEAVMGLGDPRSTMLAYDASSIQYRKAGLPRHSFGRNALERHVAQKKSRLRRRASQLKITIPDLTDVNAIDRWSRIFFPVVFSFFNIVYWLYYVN
T1 sequence (P18507 40-475): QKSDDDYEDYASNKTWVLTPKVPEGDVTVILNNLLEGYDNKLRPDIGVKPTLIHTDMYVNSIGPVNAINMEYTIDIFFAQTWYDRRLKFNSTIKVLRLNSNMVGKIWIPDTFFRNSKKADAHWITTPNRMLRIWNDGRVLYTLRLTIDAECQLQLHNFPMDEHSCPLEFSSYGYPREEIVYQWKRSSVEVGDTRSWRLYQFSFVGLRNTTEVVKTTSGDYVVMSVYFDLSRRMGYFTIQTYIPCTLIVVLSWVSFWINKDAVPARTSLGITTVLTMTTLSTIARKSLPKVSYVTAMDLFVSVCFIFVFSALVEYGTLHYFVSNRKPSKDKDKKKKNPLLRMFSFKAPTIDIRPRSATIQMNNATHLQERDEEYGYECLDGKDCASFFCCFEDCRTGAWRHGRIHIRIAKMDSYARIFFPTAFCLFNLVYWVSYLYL
Experimental: Given that ligands binding within the α1/γ2 interface act as PAMs, we selected the most promising 1H-benzo[d]imidazoles (9, 15, 16, 23, and 29) for electrophysiological studies using automated patch clamp recordings (QPatch16X, Sophion). We expected that 1H-benzo[d]imidazoles would potentiate GABA-induced Cl^– currents rather than inducing ion passage alone.
Electrophysiology studies were performed using the QPatch16X automatic patch clamp platform (Sophion Biosciences) and HEK293 cells, stably expressing the α1β2γ2 subunits of the human GABA-A receptor. Prior to the assay recordings, the cells were transferred from the culture flask through a TrypLE Express solution (LifeTechnologies) and resuspended in serum-free media. The cells were placed in the lidless microtube, located onboard the automated electrophysiology instrument. The cells were then automatically relocated to a built-in centrifuge, spun down, and washed in Ringer’s extracellular solution. The cells were transferred to the pipetting wells of a single-use 16-channel planar patch chip plate (QPlate 16X), and gigaseals were formed upon implementation of a combined suction/voltage protocol. Subsequent suction induced whole-cell configuration. The chloride currents passed via the GABA-A receptor were recorded for 7 s after single addition of a tested molecule. Through whole-cell recording, the holding potential was set to −90 mV. The assay was performed at room temperature. The extracellular solution was composed of the following ingredients: consisted of 2 mM […], 145 mM NaCl, 10 mM HEPES, CaCl2, 1 mM MgCl2, 10 mM glucose (pH 7.4, 300 mOsm), and intracellular solution contained 140 mM CsF, 1 mM EGTA, 5 mM CsOH, 10 mM HEPES, and 20 mMNaCl (pH 7.2, 320 mOsm). The screening assays were established in the instrument software by sequential application of 10 μM GABA (reference agonist AG1), 1 μM examined molecule compounds, and compounds co-administered with 10 μM GABA (T2); second addition of 10 μM GABA (AG2); 10 μM bicuculline (reference antagonist) along with 10 μM GABA (ATG). The intermission among the addition of particular molecules was 60 s. In a typical procedure, 5 μL of ligand was added to the cells, followed by 3 s of washout with an extracellular solution (two times […]). For the allosteric modulator/antagonist mode, the cells were preincubated with the tested compound alone for 50 s, followed by the addition of the reference agonist. The data obtained were processed using QPatch Assay Software (v5.0, Sophion Biosciences) and are represented as the mean of at least three independent experiments performed on separate cells. The validation criteria for a single test were current amplitude evoked by adding GABA greater than 500 pA and a change between cells’ response to GABA applications (AG1 and AG2) not greater than 25%. The relative compound efficiency was analyzed as the baseline-corrected ratio of maximal current amplitudes induced by the addition of tested compounds and reference agonist (T1-ATG/AG1-ATG or T2-ATG/AG1-ATG). The obtained raw current recordings were normalized and represented as % of the current amplitude induced by a reference agonist (GABA = 100%) using the QPatch Assay Software (v5.0, Sophion Biosciences).[24]

Work on `O=C(Cn1c(-c2ccc(F)cc2)nc2ccccc21)N1CCSCC1` [Compound 21, 2-(2-(4-Fluorophenyl)-1H-benzo[d]imidazole-1-yl)-1-thiomorpholinoethan-1-one] yielded a melting point of 205.3 to 205.8 °C.
For `COc1cccc(NC(=O)Cn2c(-c3ccc(F)cc3)nc3ccccc32)c1` [Compound 25, 2-(2-(4-Fluorophenyl)-1H-benzo[d]imidazole-1-yl)-N-(3-methoxyphenyl)acetamide], the “pKi GABA-A” value [1] was 5.02 and the melting point was 149.1 to 149.9 °C.
For `CN1CCN(C(=O)Cn2c(-c3ccc(F)cc3)nc3ccccc32)CC1` [Compound 18, 2-(2-(4-Fluorophenyl)-1H-benzo[d]imidazole-1-yl)-1-(4-methylpiperazin-1-yl)ethan-1-one], the melting point was 172.3 to 173.1 °C.
For `O=C(Cn1c(-c2ccc(F)cc2)nc2ccccc21)Nc1ccccc1` [Compound 22, 2-(2-(4-Fluorophenyl)-1H-benzo[d]imidazole-1-yl)-N-phenylacetamide], the melting point was 236.7 to 239 °C.
With `Cc1ccc2c(c1)nc(-c1ccc(F)cc1)n2CC(=O)N1CCCC1` [Compound 10, 2-(2-(4-Fluorophenyl)-5-methyl-1H-benzo[d]imidazole-1-yl)-1-(pyrrolidin-1-yl)ethan-1-one] the “pKi GABA-A” value [1] was “no affinity” and the melting point was 208.7 to 210.2 °C.
In the case of `O=C(Cn1c(-c2ccc(F)cc2)nc2ccccc21)Nc1ccc(F)cc1` [Compound 29, N-(4-Fluorophenyl)-2-(2-(4-fluorophenyl)-1H-benzo[d]imidazole-1-yl)acetamide], the “pKi GABA-A” value [1] is reported as 5.74, the melting point is reported as 248 to 248.2 °C and the “% of 10 μM GABA response” value [2] is reported as 112 ± 2,8%.
With `CC1CN(C(=O)Cn2c(-c3ccc(F)cc3)nc3ccccc32)CC(C)N1` (stereo not drawn) [Compound 19, 1-(3,5-Dimethylpiperazin-1-yl)-2-(2-(4-fluorophenyl)-1H-benzo[d]imidazole-1-yl)ethan-1-one] the melting point was 109.6 to 112.4 °C.
In the case of `Cc1ccc2c(c1)nc(-c1ccc(F)cc1)n2CC(=O)N1CCSCC1` [Compound 12, 2-(2-(4-Fluorophenyl)-5-methyl-1H-benzo[d]imidazole-1-yl)-1-thiomorpholinoethan-1-one], the “pKi GABA-A” value [1] is reported as “no affinity” and the melting point is reported as 199 to 200.9 °C.
In the case of `O=C(Cn1c(-c2ccc(F)cc2)nc2ccccc21)N1CCNCC1` [Compound 17, 2-(2-(4-Fluorophenyl)-1H-benzo[d]imidazole-1-yl)-1-(piperazin-1-yl)ethan-1-one], the “pKi GABA-A” value [1] is reported as “loss of activity” and the melting point is reported as 232.8 to 234.1 °C.
In the case of `O=C(Cn1c(-c2ccc(F)cc2)nc2ccccc21)Nc1cccc(F)c1` [Compound 28, N-(3-Fluorophenyl)-2-(2-(4-fluorophenyl)-1H-benzo[d]imidazole-1-yl)acetamide], the melting point is reported as 182.3 to 182.7 °C.
With `Cc1ccc(-c2nc3ccc(C)cn3c2CC(=O)N(C)C)cc1` [zolpidem, reference compound] the “pKi GABA-A” value [1] was 7.39 and the “% of 10 μM GABA response” value [2] was 212 ± 8,5%.
With `Cc1ccc2c(c1)nc(-c1ccc(F)cc1)n2CC(=O)Nc1ccccc1` [Compound 14, 2-(2-(4-Fluorophenyl)-5-methyl-1H-benzo[d]imidazole-1-yl)-N-phenylacetamide] the “pKi GABA-A” value [1] was “no affinity” and the melting point was 207.3 to 209.2 °C.
With `Cc1ccc2nc(-c3ccc(F)cc3)n(CC(=O)N3CCSCC3)c2c1` [Compound 11, 2-(2-(4-Fluorophenyl)-6-methyl-1H-benzo[d]imidazole-1-yl)-1-thiomorpholinoethan-1-one] the “pKi GABA-A” value [1] was 5.1 and the melting point was 205.3 to 207.1 °C.
With `CN(C)C(=O)Cn1c(-c2ccc(F)cc2)nc2ccccc21` [Compound 15, 2-(2-(4-Fluorophenyl)-1H-benzo[d]imidazole-1-yl)-N,N-dimethylacetamide] the “pKi GABA-A” value [1] was 5.39, the melting point was 182.3 to 183.1 °C and the “% of 10 μM GABA response” value [2] was 105 ± 2,5%.
In the case of `Cc1ccc2nc(-c3ccc(F)cc3)n(CC(=O)Nc3ccccc3)c2c1` [Compound 13, 2-(2-(4-Fluorophenyl)-6-methyl-1H-benzo[d]imidazole-1-yl)-N-phenylacetamide], the “pKi GABA-A” value [1] is reported as 5.53 and the melting point is reported as 202.5 to 205 °C.
For `COc1ccc(NC(=O)Cn2c(-c3ccc(F)cc3)nc3ccccc32)cc1` [Compound 26, 2-(2-(4-Fluorophenyl)-1H-benzo[d]imidazole-1-yl)-N-(4-methoxyphenyl)acetamide], the “pKi GABA-A” value [1] was “loss of affinity” and the melting point was 255.1 to 255.7 °C.
For `COc1ccccc1NC(=O)Cn1c(-c2ccc(F)cc2)nc2ccccc21` [Compound 24, 2-(2-(4-Fluorophenyl)-1H-benzo[d]imidazole-1-yl)-N-(2-methoxyphenyl)acetamide], the “pKi GABA-A” value [1] was “loss of affinity” and the melting point was 206.9 to 207.2 °C.
For `O=C(Cn1c(-c2ccc(F)cc2)nc2ccccc21)N1CCOCC1` [Compound 20, 2-(2-(4-Fluorophenyl)-1H-benzo[d]imidazole-1-yl)-1-morpholinoethan-1-one], the “pKi GABA-A” value [1] was “loss of activity”.
With `O=C(Cn1c(-c2ccc(F)cc2)nc2ccccc21)N1CCCC1` [Compound 16, 2-(2-(4-Fluorophenyl)-1H-benzo[d]imidazole-1-yl)-1-(pyrrolidin-1-yl)ethan-1-one] the “pKi GABA-A” value [1] was 5.53, the melting point was 212.9 to 214 °C and the “% of 10 μM GABA response” value [2] was 124 ± 5,2%.
`O=C(Cn1c(-c2ccc(F)cc2)nc2ccccc21)Nc1ccccc1F` [Compound 27, N-(2-Fluorophenyl)-2-(2-(4-fluorophenyl)-1H-benzo[d]imidazole-1-yl)acetamide] showed a melting point of 212.1 to 212.8 °C.

— paper PMC10020958, “2-(4-Fluorophenyl)-1H-benzo[d]imidazole as a Promising Template for the Development of Metabolically Robust, α1β2γ2GABA-A Receptor-Positive Allosteric Modulators” (ACS Chemical Neuroscience, 2023)
